# According to patent US4293489A, “Derivatives of A-30912A nucleus” (Eli Lilly and Company, priority 1980, dated 1981):
# Starred links: 1 amine or outer side, 2 acyl side, 3 side chain; linkers in the order of their positions; H or OH if unused. Positions of bridges follow the written chain, without caps; N, C: chain ends. Non-standard residues stand in square brackets, D forms with d. Residues, ends and D or L forms follow the SMILES beside them. *: point of attachment. Orn(4R-OH,5R-OH) = O=C([C@H](C[C@@H](O)[C@@H](O)N[*:3])N[*:1])[*:2]; hTyr(3S-OH,4S-OH) = N[C@H](C(=O)O)[C@H](O)[C@@H](O)c1ccc(O)cc1; Pro(3S-OH,4S-Me) = C[C@H]1CN[C@H](C(=O)O)[C@H]1O; X5 = CCCCCCCCCCCCS(=O)(=O)c1ccc(C(=O)*)cc1; X4 = CCCCCCCCCCS(=O)(=O)c1ccc(C(=O)*)cc1; X23 = CCCCCCCCS(=O)(=O)c1ccc(C(=O)*)cc1; X22 = CCCCCCCCCCCCOc1ccc(CCC(=O)*)cc1; X1 = CCCCCCCCCCCCSc1ccc(C(=O)*)cc1; X21 = CCCCCCCCOc1ccc(CCC(=O)*)cc1; Hyp = O=C(O)[C@@H]1C[C@@H](O)CN1
# Columns and labels:
# [1] = system: Trychophyton mentagrophyes #6; experiment: Agar plate disc diffusion test, MIC per disc; format: cell-based, Trichophyton mentagrophytes; conditions: 0.1M sodium borate, pH 7.5, 24 hours, 30° C., * measurable zones with regrowth of organism around disc
# Protocol: (§1) Tables 10 and 11 give the results of the testing in vitro of the compounds of Examples 3 and 4 by agar-plate disc-diffusion methods. In Table 10 activity is measured by the size (diameter in mm) of the observed zone of inhibition of the microorganism produced by the test compound. In Table 11, activity is measured by the minimal inhibitory concentration (MIC) of the substance (μg/disc) required to inhibit growth of the test organism. Table 12 gives the results of the testing in vitro of the p-(n-octyloxy)benzoyl derivative of A30912A nucleus [Formula III, R^1 is p-(n-octyloxy)benzoyl] against five strains of Candida albicans by the agar dilution method. In Table 12 activity is measured by the minimal inhibitory concentration (MIC) of the substance (μg/ml) required to inhibit the test organism.
# (§2) ^(a) Compounds were suspended in 0.1M sodium borate solution, pH 7.5.
# (§3) The compounds were tested at 20 μg/disc at top level and at twofold
# (§4) dilutions until end points were reached. Incubation: 24 hours; 30°
# *Measurable zones of inhibition with regrowth of organism around disc.
# Candida albicans A-26 [2] = experiment: Agar plate disc diffusion test, MIC per disc; format: cell-based; conditions: 0.1M sodium borate, pH 7.5, 24 hours, 30° C.
# Protocol: as §1, §2, §3, §4
# Candida albicans A-26 [3] = experiment: Therapeutic activity against Candida albicans A-26 infection in mice, ED50; format: in vivo; conditions: Candida albicans, A26, sc, doses 0, 4 and 24 hours post infection, increase in survival time vs control, Reed-Muench, read-out: ED50
# Protocol: The results of in vivo tests to evaluate the effectiveness of the compounds of Examples 3 and 4 against an infection caused by Candida albicans A-26 in mice are given in Table 13, where activity is measured by the ED50 value (the dose in mg/kg. required to cure 50% of the test animals). In a separate test, the results of which are also summarized in Table 13, activity is indicated by the lowest dose at which a significant anti-fungal effect is observed. In this test, groups of male albino mice (specific pathogen free), weighing 18 to 20 grams, are infected intravenously with Candida albicans A-26. The animals are X-irradiated 24 hours prior to infection at about 50 roentgens per minute for 8 minutes (400 total dose) to reduce immune responses to the infecting organism. At 0, 4, and 24 hours post infection each group of mice is given graded doses subcutaneously of the test compound as a suspension in 33% polyethylene glycol (PEG)-water. The day of death for each animal is recorded.
# *Dosage Schedules: A. = 40, 20, 15 and 10 mg/kg; Dosages given 0, 4, and
# 24 hours post injection as suspension of test compound in 30% PEGH2
# O. Number of mice receiving test compounds at each dosage level: 6 mice
# per group. Number of mice in control (untreated) group: 10 mice per group
# **As measured by increase in survival time of treated animals versus
# control, calculated by method of Reed v Mueuch, American J. Hygiene, 27,
SMILES,MIC [1],MIC (Candida albicans A-26 [2]),ED50 (Candida albicans A-26 [3])
"CCCCCCCCCCCCSc1ccc(C(=O)N[C@H]2C[C@@H](O)[C@@H](O)NC(=O)[C@@H]3[C@@H](O)[C@@H](C)CN3C(=O)[C@H]([C@@H](C)O)NC(=O)[C@H]([C@H](O)[C@@H](O)c3ccc(O)cc3)NC(=O)[C@@H]3C[C@@H](O)CN3C(=O)[C@H]([C@@H](C)O)NC2=O)cc1 [drawing 121] (X1-[Orn(4R-OH,5R-OH)]T[Hyp][hTyr(3S-OH,4S-OH)]T[Pro(3S-OH,4S-Me)]; lactam 1-C)",< 0.039 μg/disc,2.5 μg/disc,
"CCCCCCCCS(=O)(=O)c1ccc(C(=O)N[C@H]2C[C@@H](O)[C@@H](O)NC(=O)[C@@H]3[C@@H](O)[C@@H](C)CN3C(=O)[C@H]([C@@H](C)O)NC(=O)[C@H]([C@H](O)[C@@H](O)c3ccc(O)cc3)NC(=O)[C@@H]3C[C@@H](O)CN3C(=O)[C@H]([C@@H](C)O)NC2=O)cc1 [drawing 123] (X23-[Orn(4R-OH,5R-OH)]T[Hyp][hTyr(3S-OH,4S-OH)]T[Pro(3S-OH,4S-Me)]; lactam 1-C)",0.312 μg/disc,20 μg/disc,
"CCCCCCCCCCS(=O)(=O)c1ccc(C(=O)N[C@H]2C[C@@H](O)[C@@H](O)NC(=O)[C@@H]3[C@@H](O)[C@@H](C)CN3C(=O)[C@H]([C@@H](C)O)NC(=O)[C@H]([C@H](O)[C@@H](O)c3ccc(O)cc3)NC(=O)[C@@H]3C[C@@H](O)CN3C(=O)[C@H]([C@@H](C)O)NC2=O)cc1 [drawing 124] (X4-[Orn(4R-OH,5R-OH)]T[Hyp][hTyr(3S-OH,4S-OH)]T[Pro(3S-OH,4S-Me)]; lactam 1-C)",0.156 μg/disc,2.5 μg/disc,
"CCCCCCCCCCCCS(=O)(=O)c1ccc(C(=O)N[C@H]2C[C@@H](O)[C@@H](O)NC(=O)[C@@H]3[C@@H](O)[C@@H](C)CN3C(=O)[C@H]([C@@H](C)O)NC(=O)[C@H]([C@H](O)[C@@H](O)c3ccc(O)cc3)NC(=O)[C@@H]3C[C@@H](O)CN3C(=O)[C@H]([C@@H](C)O)NC2=O)cc1 [drawing 125] (X5-[Orn(4R-OH,5R-OH)]T[Hyp][hTyr(3S-OH,4S-OH)]T[Pro(3S-OH,4S-Me)]; lactam 1-C)",0.078 μg/disc,0.625 μg/disc,
"CCCCCCCCS(=O)(=O)c1ccc(C(=O)N[C@H]2C[C@@H](O)[C@@H](O)NC(=O)[C@@H]3[C@@H](O)[C@@H](C)CN3C(=O)[C@H]([C@@H](C)O)NC(=O)[C@H]([C@H](O)[C@@H](O)c3ccc(O)cc3)NC(=O)[C@@H]3C[C@@H](O)CN3C(=O)[C@H]([C@@H](C)O)NC2=O)cc1 [drawing 159] (X23-[Orn(4R-OH,5R-OH)]T[Hyp][hTyr(3S-OH,4S-OH)]T[Pro(3S-OH,4S-Me)]; lactam 1-C)",,,57 mg/kg
"CCCCCCCCCCS(=O)(=O)c1ccc(C(=O)N[C@H]2C[C@@H](O)[C@@H](O)NC(=O)[C@@H]3[C@@H](O)[C@@H](C)CN3C(=O)[C@H]([C@@H](C)O)NC(=O)[C@H]([C@H](O)[C@@H](O)c3ccc(O)cc3)NC(=O)[C@@H]3C[C@@H](O)CN3C(=O)[C@H]([C@@H](C)O)NC2=O)cc1 [drawing 160] (X4-[Orn(4R-OH,5R-OH)]T[Hyp][hTyr(3S-OH,4S-OH)]T[Pro(3S-OH,4S-Me)]; lactam 1-C)",,,57 mg/kg
"CCCCCCCCOc1ccc(CCC(=O)N[C@H]2C[C@@H](O)[C@@H](O)NC(=O)[C@@H]3[C@@H](O)[C@@H](C)CN3C(=O)[C@H]([C@@H](C)O)NC(=O)[C@H]([C@H](O)[C@@H](O)c3ccc(O)cc3)NC(=O)[C@@H]3C[C@@H](O)CN3C(=O)[C@H]([C@@H](C)O)NC2=O)cc1 [drawing 172] (X21-[Orn(4R-OH,5R-OH)]T[Hyp][hTyr(3S-OH,4S-OH)]T[Pro(3S-OH,4S-Me)]; lactam 1-C)",,,4.5 mg/kg
"CCCCCCCCCCCCOc1ccc(CCC(=O)N[C@H]2C[C@@H](O)[C@@H](O)NC(=O)[C@@H]3[C@@H](O)[C@@H](C)CN3C(=O)[C@H]([C@@H](C)O)NC(=O)[C@H]([C@H](O)[C@@H](O)c3ccc(O)cc3)NC(=O)[C@@H]3C[C@@H](O)CN3C(=O)[C@H]([C@@H](C)O)NC2=O)cc1 [drawing 173] (X22-[Orn(4R-OH,5R-OH)]T[Hyp][hTyr(3S-OH,4S-OH)]T[Pro(3S-OH,4S-Me)]; lactam 1-C)",,,4.5 mg/kg
